This note sets out measurements from paper PMC10810651, “Discovery of novel and potent CDK8 inhibitors for the treatment of acute myeloid leukaemia” (Journal of Enzyme Inhibition and Medicinal Chemistry, 2024).

Where two headings read alike, the source gives them in different places.

Data set [1] deals with T1, CDK8 (Homo sapiens, UniProt P49336). Description: CDK8 enzyme activity assay (ADP-Glo Kinase Assay). Format: biochemical. As to conditions: means ± SD. The method, then: Some of them with high inhibition rates were further measured for their IC50 values. Compound SEL-120 34 A was selected as a positive control. [table] [table] page 14: CO2 atmosphere incubator for 24 h. Then, medium with compound at the concentrations of 100, 20, 4, 0.8, 0.016 μM was added into each well for another 48 h and incubated with CCK-8 (10 μL) for 2 h at 37 °C. The absorbance value at 450 nm was measured by the microplate reader (PerkinElmer Envision). 1.4 Kinase Assay The kinase inhibition was detected by ADP-Glo™ Kinase Assay (Promega) using a black 384-well plate. The active CDK8 kinase was diluted in mixture (5 ng enzyme, 0.5 μg substrate, 50 μM DTT, 1 μL reaction buffer and added ddH2O to 3 μL each well) and the final ATP concentrations of was 50 μM. After incubation at room temperature, ADP-Glo™ solution and kinase detection reagent was added. The data was collected by the microplate reader. 1.5 Cellular thermal shift assay HCT-116 cells were cultured in cell culture dishes and treated with 5 μM compound 12 for 4 h. HCT-116 cells were collected, washed by PBS and cell suspensions were divided into 12 PCR tubes equally. Then,11 tubes were heated at 37, […] After that, cells were broken by ultr asonic treatment and centrifuged at 12000 rpm for 20 min. The supernatant was analyzed by western blot. 1.6 Biotin-pulldown assay After co-treated with 2 μM biotinylated compound and compound 12 for 12 h, HCT-116 cells were lysed with NP-40 containing PMSF and centrifuged at 14000 r for 30 min at 4 °C. Then, 40 μL supernatant was used as the input by adding 10 μL 5×SDS loading buffer, and the remains were mixed with Streptavidin Agarose (Novex, Carlsbad, CA, USA). After 6 h incuba tion at 4 °C, the beads were washed three times using lysis buffer and resuspended in 2× SDS loading buffer. HEK -293T cells overexpressed flag -tagged CDK8 were treated using above method. The samples were analyzed by western blot.
Background: ADP-Glo first removes unused ATP, then detects ADP through luciferase.
Target sequence in this assay (P49336 whole entry): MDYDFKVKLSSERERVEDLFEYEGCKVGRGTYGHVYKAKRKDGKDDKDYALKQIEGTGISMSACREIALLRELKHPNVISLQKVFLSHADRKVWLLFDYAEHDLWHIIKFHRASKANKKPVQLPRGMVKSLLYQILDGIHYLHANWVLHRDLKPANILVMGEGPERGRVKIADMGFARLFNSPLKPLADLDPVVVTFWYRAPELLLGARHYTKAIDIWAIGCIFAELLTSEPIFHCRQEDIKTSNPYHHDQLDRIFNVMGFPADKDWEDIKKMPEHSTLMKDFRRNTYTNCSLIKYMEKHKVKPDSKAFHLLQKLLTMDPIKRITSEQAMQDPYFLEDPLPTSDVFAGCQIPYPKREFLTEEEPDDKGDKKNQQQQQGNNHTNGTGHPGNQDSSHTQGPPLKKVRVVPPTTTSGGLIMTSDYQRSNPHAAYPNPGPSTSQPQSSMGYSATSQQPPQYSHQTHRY
Target sequence in this assay (P24863 whole entry partner): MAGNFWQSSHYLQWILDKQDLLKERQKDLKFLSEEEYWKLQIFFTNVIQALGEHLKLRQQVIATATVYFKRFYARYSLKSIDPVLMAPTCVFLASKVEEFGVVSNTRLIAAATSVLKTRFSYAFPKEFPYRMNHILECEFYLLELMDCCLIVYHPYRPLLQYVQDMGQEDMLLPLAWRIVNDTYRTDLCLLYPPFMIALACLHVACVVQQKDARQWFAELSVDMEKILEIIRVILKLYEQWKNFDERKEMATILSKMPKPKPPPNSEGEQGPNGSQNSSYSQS

The test system of data set [2] is MGC-803. The data set can be described thus: Antiproliferative CCK-8 assay, MGC-803. As to conditions: Homo sapiens; MGC-803, CCK-8 assay, means ± SD; read-out: GC50 (the source's name). Format: cell-based. The text has this: (§1) Compounds12, 13 and 30 were selected for further cell activity assessments based on the enzymatic activity assessment results. molm-13 and MV4-11(acute myeloid lineage leukaemia cells), MGC-803 (gastric cancer cell), MDA-MB-231(breast cancer cell), A375 (melanoma cell), A549 (lung cancer cell), HCT-116, SW-480 and HT-29 (colorectal cancer cells) were selected to evaluate antitumor activity in vitro, GES-1 (gastric mucosal epithelial cell) was selected to evaluate toxicity in vitro.
(§2) CO2 atmosphere incubator for 24 h. Then, medium with compound at the concentrations of 100, 20, 4, 0.8, 0.016 μM was added into each well for another 48 h and incubated with CCK-8 (10 μL) for 2 h at 37 °C. The absorbance value at 450 nm was measured by the microplate reader (PerkinElmer Envision). […]

Data set [3] relates to SW480. The data set can be described thus: Antiproliferative CCK-8 assay, SW480. Format: cell-based. As to conditions: Homo sapiens; SW480, CCK-8 assay, means ± SD; read-out: GC50 (the source's name).
Description: as §1, §2
A general note: Tetrazolium assays rely on reduction of a dye to a coloured formazan, in cell work by metabolically active cells.

In data set [4] the test system is GES-1. Description: In vitro toxicity CCK-8 assay, GES-1. Format: cell-based. As to conditions: Homo sapiens, GES1, GES-1 gastric mucosal epithelial cell, read-out: GC50 (the source's name).
Description: as §1, §2

Data set [5] in a line: Caco-2 permeability determination. As to conditions: human. Format: in vitro ADME. (Passage across Caco-2 layers is used to estimate intestinal permeability.)
Data set [6] relates to Caco-2. Description: Caco-2 permeability determination. Format: in vitro ADME. As to conditions: Caco-2.
Data set [7] deals with CYP 2C9 (Homo sapiens, UniProt P11712). The data set can be described thus: CYP inhibition activity, 2C9. Format: in vitro ADME. The source says:
Table 7. CYP inhibition activity. | column: IC50 (μM) / 2C9

In data set [8] the target is CYP 2D6 (Homo sapiens, UniProt P10635). The data set can be described thus: CYP inhibition activity, 2D6. Format: in vitro ADME. The source says: Table 7. CYP inhibition activity. | column: IC50 (μM) / 2D6
Sequence of CYP 2D6 (P10635 whole entry): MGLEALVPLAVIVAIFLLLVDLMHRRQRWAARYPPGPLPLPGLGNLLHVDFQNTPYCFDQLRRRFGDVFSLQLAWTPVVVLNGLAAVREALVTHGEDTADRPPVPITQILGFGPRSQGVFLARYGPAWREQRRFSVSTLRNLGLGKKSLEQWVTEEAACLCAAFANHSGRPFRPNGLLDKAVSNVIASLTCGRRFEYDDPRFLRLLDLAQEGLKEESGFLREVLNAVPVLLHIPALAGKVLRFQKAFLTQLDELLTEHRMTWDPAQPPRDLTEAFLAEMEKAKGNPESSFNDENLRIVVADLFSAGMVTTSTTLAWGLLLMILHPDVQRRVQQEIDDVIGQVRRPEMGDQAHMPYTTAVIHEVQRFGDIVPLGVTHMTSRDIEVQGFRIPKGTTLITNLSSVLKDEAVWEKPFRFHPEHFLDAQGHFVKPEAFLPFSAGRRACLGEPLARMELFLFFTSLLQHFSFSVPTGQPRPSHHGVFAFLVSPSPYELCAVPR
The target in data set [9] is T1, CDK8. The data set can be described thus: Cellular thermal shift assay. Format: cell-based. The arrangement: endogenous in cells; host or cells: HCT-116. As to conditions: HCT-116 cells, 5 μM, 6 h; DMSO 49 °C; western blot. The procedure: Here, in order to identify compound 12 could bind CDK8, HCT-116 cells, a CDK8 high expression cell line, were treated with 5 μM compound 12 and DMSO for 6 h, respectively. Cell suspension was divided into 11 PCR tubes equally, then the samples were heated from 37 to 67 °C at intervals of 3 °C and the results were analysed through western blot. […] However, CDK8 was degraded almost completely at 55 °C after treated with compound 12, which indicated compound 12 enhanced the thermal stability of CDK8 and compound 12 could bind CDK8.
CO2 atmosphere incubator for 24 h. Then, medium with compound at the concentrations of 100, 20, 4, 0.8, 0.016 μM was added into each well for another 48 h and incubated with CCK-8 (10 μL) for 2 h at 37 °C. The absorbance value at 450 nm was measured by the microplate reader (PerkinElmer Envision).
The kinase inhibition was detected by ADP-Glo™ Kinase Assay (Promega) using a black 384-well plate. […] The data was collected by the microplate reader. […]
were broken by ultr asonic treatment and centrifuged at 12000 rpm for 20 min. The supernatant was analyzed by western blot. […]
After co-treated with 2 μM biotinylated compound and compound 12 for 12 h, HCT-116 cells were lysed with NP-40 containing PMSF and centrifuged at 14000 r for 30 min at 4 °C. […] The samples were analyzed by western blot.
Target sequence in this assay (P49336 whole entry): as the sequence (P49336 whole entry) above

Sequence of CYP 2C9 (P11712 whole entry): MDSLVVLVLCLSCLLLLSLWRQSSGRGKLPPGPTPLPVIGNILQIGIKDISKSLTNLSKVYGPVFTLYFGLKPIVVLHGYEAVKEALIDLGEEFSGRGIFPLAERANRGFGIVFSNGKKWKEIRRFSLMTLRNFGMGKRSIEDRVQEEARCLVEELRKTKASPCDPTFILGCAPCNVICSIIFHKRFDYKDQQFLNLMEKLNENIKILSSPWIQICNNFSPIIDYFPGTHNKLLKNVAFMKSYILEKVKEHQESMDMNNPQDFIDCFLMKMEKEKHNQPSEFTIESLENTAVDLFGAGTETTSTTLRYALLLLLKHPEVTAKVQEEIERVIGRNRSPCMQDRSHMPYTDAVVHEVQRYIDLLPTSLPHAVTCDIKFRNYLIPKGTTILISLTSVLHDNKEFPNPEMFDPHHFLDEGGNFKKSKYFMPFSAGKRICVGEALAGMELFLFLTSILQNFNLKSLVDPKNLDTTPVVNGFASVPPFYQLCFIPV

By inhibition is commonly meant the percentage by which the read-out fell short of the control. A word on the efflux ratio: it is a quotient of directional permeabilities that is used to spot active efflux. As usually defined, the Papp A→B is how fast a substance crosses the layer from the apical side. High values mean ready permeation, low ones poor permeation. What is called Papp B→A is how fast a substance crosses the layer from the basolateral side. As to `NC(=O)c1cccc(-c2cnc3[nH]cc(-c4ccoc4)c3c2)c1` [Compound 12, 3-(3-(furan-3-yl)-1H-pyrrolo[2,3-b]pyridin-5-yl)benzamide], the inhibition at 0.2 µM in data set [1] (CDK8, 200 nM, two experiments, read-out: Inhibition rate @ 200 nM (%)) amounted to 80.9 ± 3.5%. Further, the IC50 was 0.0392 ± 0.0063 µM in [1] (three experiments); 11.7 ± 1.93 µM in data set [2]; 6.05 ± 2.26 µM in data set [3]; 25.7 ± 4.97 µM in data set [4]; over 50 µM in [7]; over 50 µM in [8]. In addition, the efflux ratio in data set [5] (Caco-2) came to 1.3. The recovery in data set [5] (Caco-2, Caco-2, A→B, read-out: Recovery A→B) stood at 107%; in data set [5] (Caco-2, Caco-2, B→A, read-out: Recovery B→A), 108%. Besides, in [5] (Caco-2, A→B), the Papp A→B worked out at 27 ×10⁻⁶ cm/s. Further, the Papp B→A in data set [5] (Caco-2, B→A) turned out to be 35.1 ×10⁻⁶ cm/s. The “Permeability (in words)” value in data set [6] is recorded as “high permeability”. In addition, the “Temperature at which CDK8 was degraded almost completely” value in data set [9] worked out at 55 °C.
